pIC50: −log10 of the molar value. Like-named read-outs stand apart in the source and are kept apart here.
Assays:
[1] = system: ESR1 transcription in MVLN cells; assay: MVLN reporter assay: repression of ESR1 transcription (luciferase signal); assay type: cell-based; settings: luciferase signal after 24 h, read-out: MVLN reporter assay, IC50 [M] (arithmetic mean)
Outline: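 To control for cell loss, Alamar Blue (2 h, 530/590 nm) precedes the 24 h luciferase measurement. The reporter is an ERE from the Xenopus vitellogenin A2 gene driving luciferase, stably transfected into ER-expressing MVLN cells; duplicate samples.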

[2] = system: MDA-MB-436 cells; assay: MDA-MB-436 proliferation assay (negative control cell line); assay type: cell-based; settings: 144 h, Alamar Blue, read-out: MDA-MB-436 proliferation assay, EC50 [M] (arithmetic mean)
Text: (§1) For compound characterization cell survival assays were routinely run in two cell lines. ZR-75-1 is a breast carcinoma cell line containing a focal KAT6A amplification and high KAT6A protein expression. Proliferation of this cell line is inhibited upon treatment with KAT6A inhibitors. As a negative control cell line MDA-MB-436 were used. These cells carry a […] deletion of the KAT6A gene, have a low KAT6A protein expression and are not growth inhibited upon treatment with KAT6A inhibitors.
(§2) For measurements cell lines were plated at the below indicated concentration per […] in 96-well plates in a humidified incubator at 37° C. and 5% CO2.
MDA-MB-436 (CLS, 300278; breast adenocarcinoma); 3000 cells per well; culture medium: DMEM/Ham's F12 (Biochrom #FG 4815) medium containing 2.5% FBS (Biochrom #S0615).
(§3) Each sample was prepared as triplicate and rim wells were excluded. Plates were incubated at 37° C. and 5% CO2 for 144 h. Cell viability was measured by adding 10 μL of Alamar Blue Reagent (Invitrogen #DAL 1100) and plates were incubated for 2 h at 37° C. and 5% CO2. Fluorescence was measured at 590 nm wavelength with a Tecan Spark or Victor X3 MTP-Reader (PerkinElmer).

[3] = system: LCLC97TM1; assay: LCLC97TM1 proliferation assay; assay type: cell-based; settings: read-out: LCLC97TM1 proliferation assay, EC50 [M] (arithmetic mean)
[4] = system: ZR-75-1 cells; assay: ZR-75-1 proliferation assay; assay type: cell-based; settings: Alamar Blue, read-out: ZR75-1 proliferation assay, EC50 [M] (arithmetic mean)
Text: as §1, §2
ZR-75-1 (ATCC, CRL-1500; breast carcinoma); 3000 cells per well; culture medium: RPMI 1640 (Biochrom #FG 1215) medium containing 2.5% FBS (Biochrom #S0615).
as §3

[5] = target: T1, Recombinant human His-tagged Kat6a protein (amino acids 194-810) (Homo sapiens, UniProt Q92794); assay: Kat6a activity assay (TR-FRET, acetylation of Histone-H4-derived peptide); assay type: biochemical; settings: 60 mins at 22° C., 220 nM H4 peptide, 600 nM Acetyl Coenzyme A, read-out: KAT6A - DPF/HAT domain IC50 [mol/l] (arithmetic mean)
T1 construct: Kat6a protein (amino acids 194-810); His
T1 sequence (Q92794 194-810): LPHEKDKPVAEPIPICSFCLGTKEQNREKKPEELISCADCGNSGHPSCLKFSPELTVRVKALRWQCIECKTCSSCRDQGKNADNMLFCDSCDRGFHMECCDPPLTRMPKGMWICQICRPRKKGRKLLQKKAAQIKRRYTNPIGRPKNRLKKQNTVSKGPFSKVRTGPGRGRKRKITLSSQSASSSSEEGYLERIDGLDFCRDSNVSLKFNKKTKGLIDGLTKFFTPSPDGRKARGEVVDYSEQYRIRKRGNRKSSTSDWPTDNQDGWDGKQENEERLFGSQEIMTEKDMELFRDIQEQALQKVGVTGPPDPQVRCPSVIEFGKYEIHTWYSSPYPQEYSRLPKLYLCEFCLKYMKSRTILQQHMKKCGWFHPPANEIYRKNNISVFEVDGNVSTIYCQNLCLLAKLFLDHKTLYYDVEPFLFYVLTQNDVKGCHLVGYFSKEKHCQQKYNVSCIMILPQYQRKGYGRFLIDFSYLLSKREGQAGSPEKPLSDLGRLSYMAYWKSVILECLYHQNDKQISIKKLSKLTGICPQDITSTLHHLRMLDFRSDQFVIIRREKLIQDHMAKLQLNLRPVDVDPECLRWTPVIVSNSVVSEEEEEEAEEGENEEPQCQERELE

[6] = Homo sapiens, LCLC-97TM1, LCLC97TM1

| SMILES | IC50 ([1]; Homo sapiens, MVLN, 24 h) | EC50 ([2]; Homo sapiens) | EC50 [3, 6] | EC50 ([4]; Homo sapiens, ZR-75-1, 144 h) | pIC50 [5] | IC50 [1] | EC50 [2] | EC50 ([3]; LCLC97TM1) | EC50 ([4]; 144 h) |
| --- | --- | --- | --- | --- | --- | --- | --- | --- | --- |
| COc1ccc(N2CCCC2c2ccccc2)cc1S(=O)(=O)NC(=O)c1cc2c(F)cc(N3CCC3)cc2o1 (racemic) [Example 201, 6-(Azetidin-1-yl)-4-fluoro-N-[2-methoxy-5-(2-phenylpyrrolidin-1-yl)benzene-1-sulfonyl]-1-benzofuran-2-carboxamide (rac)] | 6.48e-07 M | > 2e-05 M | 2.81e-06 M | 3.26e-06 M | 9.09 |  |  |  |  |
| CC(Oc1ccccc1S(=O)(=O)NC(=O)c1cc2c(F)cc(N3CCC3)cc2o1)C(F)(F)F (single isomer, unassigned) [Example 15] |  |  |  |  | 7.33 | 7.55e-08 M | > 2e-05 M | 6.28e-07 M | 2.46e-07 M |
| CCC(C)Oc1ccc(C)cc1S(=O)(=O)NC(=O)c1cc2c(F)cc(N3CCC3)cc2o1 (stereo not shown) [Example 4, 6-(Azetidin-1-yl)-N-(2-{[butan-2-yl]oxy}-5-methylbenzene-1-sulfonyl)-4-fluoro-1-benzofuran-2-carboxamide] | 6.3e-08 M | > 2e-05 M | 6.42e-07 M | 1.14e-07 M | 8.06 |  |  |  |  |
| Cc1ccc(OC(C)C)c(S(=O)(=O)NC(=O)c2cc3c(F)cc(N4CC(F)C4)cc3o2)c1 [Example 157, 4-Fluoro-6-(3-fluoroazetidin-1-yl)-N-{5-methyl-2-[(propan-2-yl)oxy]benzene-1-sulfonyl}-1-benzofuran-2-carboxamide] | 7.51e-08 M | > 2e-05 M | 7.07e-07 M | 1.1e-07 M | 7.43 |  |  |  |  |
| C=C(C)c1ccc(OC)c(S(=O)(=O)NC(=O)c2cc3c(F)cc(N4CCC4)cc3o2)c1 [Example 205, 6-(Azetidin-1-yl)-4-fluoro-N-[2-methoxy-5-(prop-1-en-2-yl)benzene-1-sulfonyl]-1-benzofuran-2-carboxamide] | 7.15e-08 M | > 2e-05 M | 9.37e-07 M | 1.73e-07 M | 8.10 |  |  |  |  |
| CCc1ccc2cccc(S(=O)(=O)NC(=O)c3cc4c(F)cc(N5CCC5)cc4o3)c2n1 [Example 171, 6-(Azetidin-1-yl)-N-(2-ethylquinoline-8-sulfonyl)-4-fluoro-1-benzofuran-2-carboxamide] | 6.68e-08 M | > 2e-05 M | 4.4e-07 M | 3.98e-07 M | 7.80 |  |  |  |  |
| CCOc1ccc(C(F)(F)F)cc1S(=O)(=O)NC(=O)c1cc2c(F)cc(N3CCC3)cc2o1 [Example 209, 6-(azetidin-1-yl)-N-[2-ethoxy-5-(trifluoromethyl)phenyl]sulfonyl-4-fluoro-benzofuran-2-carboxamide] | 5.86e-08 M | > 2e-05 M | 6.32e-07 M | 4.59e-08 M | 7.58 |  |  |  |  |
| CC(C)Oc1ccccc1S(=O)(=O)NC(=O)c1cc2c(F)cc(N3CC(F)C3)cc2o1 [Example 155, 4-Fluoro-6-(3-fluoroazetidin-1-yl)-N-{2-[(propan-2-yl)oxy]benzene-1-sulfonyl}-1-benzofuran-2-carboxamide] | 7.14e-08 M | > 2e-05 M | 4.28e-07 M | 7.48e-08 M | 7.44 |  |  |  |  |
| CCOc1ccccc1S(=O)(=O)NC(=O)c1cc2ccc(N3CC(F)(F)C3)cc2o1 [Example 118, 6-(3,3-Difluoroazetidin-1-yl)-N-(2-ethoxybenzene-1-sulfonyl)-1-benzofuran-2-carboxamide] | 1.2e-06 M | > 2e-05 M | 2.72e-06 M | 2.46e-06 M | 5.70 |  |  |  |  |
| CCCOc1cccc(OCCC)c1S(=O)(=O)NC(=O)c1cc2c(F)cc(N3CCC3)cc2o1 [Example 17, 6-(Azetidin-1-yl)-N-(2,6-dipropoxybenzene-1-sulfonyl)-4-fluoro-1-benzofuran-2-carboxamide] | 1.76e-07 M | > 2e-05 M | 8.49e-07 M | 2.76e-07 M | 8.35 |  |  |  |  |
| CCOc1ccc(C(C)(C)C)cc1S(=O)(=O)NC(=O)c1cc2c(F)cc(N3CCC3)cc2o1 [Example 78, 6-(azetidin-1-yl)-N-(5-tert-butyl-2-ethoxybenzene-1-sulfonyl)-4-fluoro-1-benzofuran-2-carboxamide] | 4.95e-09 M | > 2e-05 M | 5.75e-08 M | 5.87e-08 M | 8.85 |  |  |  |  |

From patent publication US20240279207A1, “SUBSTITUTED ACYL SULFONAMIDES FOR TREATING CANCER” (The Broad Institute, Inc., priority 2020, published 2024)
